{"source": "patent US12303499B2", "about": "“Aqueous based pharmaceutical formulations of 1,2-dihydropyridine compounds” (Eisai R&D Management Co., Ltd., priority 2018, dated 2025)", "type_in_all_cases": "physicochemical", "key": {"[1]": {"assay": "Aqueous solubility of perampanel without solubilizer", "settings": "water without solubilizer, aqueous buffer", "method": "Perampanel has particularly poor water solubility. Perampanel has an aqueous solubility of about 0.001 mg/mL at pH 7 at ambient room temperature. Many attempts to solubilize perampanel in water have failed.\nPerampanel is a basic drug that has poor water solubility. One source of perampanel is FYCOMPA, obtained from Eisai Co. Ltd., of Tokyo. […] Solubility studies investigated numerous different solubilizers ranging from organic cosolvents, surfactants, amino acids, complexing agents, and cyclodextrins. Further solubility studies were conducted as a function of pH with four selected solubilizers in the pH range 2 to 6. Solubility with all four solubilizers decreased as the pH was increased from 2 to 6. (See FIG. 2)"}, "[2]": {"assay": "pH-solubility of perampanel in SBE-β-CD solutions", "settings": "aqueous with cosolvent or surfactant or cyclodextrin", "method": "Studies were conducted to determine the effect of Sulfobutyl Ether Beta Cyclodextrin (SBE-β-CD) concentration and pH on perampanel solubility. In one embodiment, the drug is solubilized at acidic pH in high concentration SBE-β-CD solutions, and then administered at neutral pH in low concentration SBE-β-CD solutions after dilution. The pH range studied for the formulation was 1.5 to 8.0 with a SBE-β-CD concentration range of 20% to 50%. For the diluted administration solution, the pH range studied was 6 to 8 with a SBE-β-CD concentration range of 3% to 9.5%.\nIn one embodiment, the drug product is administered after dilution with an IV fluid. The solubility of perampanel in SBE-β-CD was determined under diluted conditions in the neutral pH range. Perampanel concentrations after dilution can be as low as 0.08 mg/mL (8 mg in 100 mL) and as high as 0.24 mg/mL (12 mg in 50 mL)."}, "[3]": {"assay": "Metastable zone width study (precipitation temperature on cooling)", "settings": "40% SBE-β-CD, pH 7", "method": "Meta-Stable Zone Width studies on SBE-β-CD based perampanel formulations containing varying concentrations of perampanel were performed to estimate the meta-stable zone for formulations containing 40% SBE-β-CD at pH 7. Lyophilization provides for long-term storage but requires reconstitution prior to use. When the lyophilized formulation is reconstituted, the solution is in a meta-stable supersaturated state. Meta-stable zone width analysis provides an estimate of how close a formulation is to the meta-stable state boundary.\nPerampanel solutions of varying concentration were prepared in 40% SBE-β-CD at pH 7 and placed in a warm temperature controlled mixing vessel with a LASENTECH® probe to detect precipitation. Although those skilled in the art will recognize that formulations as stated in the prior examples may be prepared by a number of methods, the following method is used to prepare formulations at various perampanel concentrations in 40% SBE-β-CD, pH 7, liquid form, for the trials below. First, a SBE-β-CD solution at pH 1.8 is prepared by adding about 25 ml of water to a beaker, then adding about 20 g of SBE-β-CD. The SBE-β-CD has a water content of 4.7%, is 100% pure, and has a theoretical weight of 20 g/0.953, or 21.0 g. The SBE-β-CD is slowly added with mixing until it has dissolved. The volume is checked to ensure that it is not greater than 40 ml. pH of the solution is adjusted to pH 1.75 with 85% phosphoric acid.\nThe weight of perampanel used to prepared the desired concentration is then calculated by dividing 100 mg by the product of (1-[moisture content of perampanel/100]) and (anhydrous purity of perampanel/100). In some examples the moisture content is 3.7% and the anhydrous purity is 99.9%. The calculated amount of perampanel is added to the pH 1.75 solution, then mixed overnight at 40° C. The solution is filtered through a 20 μm filter at 40° C., then warmed to 40° C. At that temperature pH is adjusted to 7. Volume is adjusted to 50 mL with water and mixed.\nThe solutions were cooled at defined rates and the temperature at which precipitation occurred was recorded. The potency for each sample was measured by HPLC analysis. The precipitation temperature data were analyzed as per the method described by Sangwal, K. in Crystal Growth and Design, 9, 2 (2009) 942-950.\nA plot of the precipitation temperature of perampanel from a 40% SBE-β-CD, pH 7 solution as a function of drug concentration (mg/mL) and cooling rate (deg C./hr) is provided in FIG. 8. A contour plot (see FIG. 9) and a 3-D plot (see FIG. 10) illustrating the relationship between cooling rate (deg/hr), perampanel concentration (mg/mL) and precipitation temperature were generated using the DESIGN-EXPERT® software, version 7.1.6. The DESIGN-EXPERT® model used the precipitation temperature, cooling rate, concentration and concentration terms to fit a surface to the data. The DESIGN-EXPERT® program was then able to extrapolate the precipitation temperature at zero cooling rate for different drug concentrations with 95% confidence intervals from the fit of the data.\nThis extrapolated data was used to prepare FIG. 11, which predicts the meta-stable zone boundary for perampanel in a 40% SBE-β-CD formulation at pH 7. Theoretically, if the drug concentration remains at or below the meta-stable zone boundary, then the drug should not precipitate from solution at the defined temperatures."}}, "data": [{"smiles": "N#Cc1ccccc1-c1cc(-c2ccccn2)cn(-c2ccccc2)c1=O", "note": "[perampanel, 2-(6′-oxo-1′-phenyl-1′,6′-dihydro[2,3′-bipyridin]-5′-yl)benzonitrile]", "values": [{"measurement": "solubility", "setting": "[1]; 22° C., pH 2", "result": 30, "unit": "µg/mL"}, {"measurement": "solubility", "setting": "[1]; 22° C., pH 7", "result": "~1", "unit": "µg/mL"}, {"measurement": "solubility", "setting": "[1]; pH 7, ambient room temperature", "result": "~1", "unit": "µg/mL"}, {"measurement": "solubility", "setting": "[2]; 3% SBE-β-CD solution, 3% SBE-β-CD, pH 5.5", "result": 20, "unit": "µg/mL"}, {"measurement": "solubility", "setting": "[2]; 3% SBE-β-CD solution, 3% SBE-β-CD, pH 7", "result": 30, "unit": "µg/mL"}, {"measurement": "solubility", "setting": "[2]; 3% SBE-β-CD solution, 3% SBE-β-CD, pH 8", "result": 30, "unit": "µg/mL"}, {"measurement": "solubility", "setting": "[2]; 6% SBE-β-CD solution, 6% SBE-β-CD, pH 5.5", "result": 40, "unit": "µg/mL"}, {"measurement": "solubility", "setting": "[2]; 6% SBE-β-CD solution, 6% SBE-β-CD, pH 7", "result": 30, "unit": "µg/mL"}, {"measurement": "solubility", "setting": "[2]; 6% SBE-β-CD solution, 6% SBE-β-CD, pH 8", "result": 60, "unit": "µg/mL"}, {"measurement": "solubility", "setting": "[2]; 9.5% SBE-β-CD solution, 9.5% SBE-β-CD, pH 5", "result": 80, "unit": "µg/mL"}, {"measurement": "solubility", "setting": "[2]; 9.5% SBE-β-CD solution, 9.5% SBE-β-CD, pH 7", "result": 80, "unit": "µg/mL"}, {"measurement": "Ppt T", "setting": "[3]; Exp MC2-102-148, cooling 3.00 deg C./hour, measured 1.99 mg/mL", "result": 21.6, "unit": "deg C."}, {"measurement": "Ppt T", "setting": "[3]; Exp MC2-102-149, cooling 1.00 deg C./hour, measured 1.64 mg/mL", "result": 31.6, "unit": "deg C."}, {"measurement": "Ppt T", "setting": "[3]; Exp MC2-102-150, cooling 3.00 deg C./hour, measured 1.69 mg/mL", "result": 13.7, "unit": "deg C."}, {"measurement": "Ppt T", "setting": "[3]; Exp MC2-102-151, cooling 6.00 deg C./hour, measured 1.63 mg/mL", "result": 11.3, "unit": "deg C."}, {"measurement": "Ppt T", "setting": "[3]; Exp MC2-102-153, cooling 6.00 deg C./hour, measured 1.81 mg/mL", "result": 12.6, "unit": "deg C."}, {"measurement": "Ppt T", "setting": "[3]; Exp MC2-102-154, cooling 1.00 deg C./hour, measured 1.97 mg/mL", "result": 30.5, "unit": "deg C."}, {"measurement": "Ppt T", "setting": "[3]; Exp MC2-102-155, cooling 2.00 deg C./hour, measured 1.68 mg/mL", "result": 12.2, "unit": "deg C."}, {"measurement": "Ppt T", "setting": "[3]; Exp MC2-102-157, cooling 4.00 deg C./hour, measured 1.70 mg/mL", "result": 17.2, "unit": "deg C."}, {"measurement": "Ppt T", "setting": "[3]; Exp MC2-102-159, cooling 2.00 deg C./hour, measured 1.39 mg/mL", "result": 6.4, "unit": "deg C."}, {"measurement": "Ppt T", "setting": "[3]; Exp MC2-102-161, cooling 0.50 deg C./hour, measured 1.79 mg/mL", "result": 32.6, "unit": "deg C."}, {"measurement": "Ppt T", "setting": "[3]; Exp MC2-102-162, cooling 1.50 deg C./hour, measured 1.74 mg/mL", "result": 21.7, "unit": "deg C."}, {"measurement": "Ppt T", "setting": "[3]; Exp MC2-102-163, cooling 0.75 deg C./hour, measured 1.51 mg/mL", "result": 20.3, "unit": "deg C."}, {"measurement": "Ppt T", "setting": "[3]; Exp MC2-102-164, cooling 0.15 deg C./hour, measured 1.74 mg/mL", "result": 36.6, "unit": "deg C."}, {"measurement": "Ppt T", "setting": "[3]; Exp MC2-102-165, cooling 0.30 deg C./hour, measured 1.80 mg/mL", "result": 34.8, "unit": "deg C."}, {"measurement": "Ppt T", "setting": "[3]; Exp MC2-102-166, cooling 0.75 deg C./hour, measured 1.78 mg/mL", "result": 32.1, "unit": "deg C."}, {"measurement": "Ppt T", "setting": "[3]; Exp MC2-102-168, cooling 1.00 deg C./hour, measured 1.52 mg/mL", "result": 9.5, "unit": "deg C."}, {"measurement": "Ppt T", "setting": "[3]; Exp MC2-102-169, cooling 0.50 deg C./hour, measured 1.43 mg/mL", "result": 29.5, "unit": "deg C."}, {"measurement": "Ppt T", "setting": "[3]; Exp MC2-102-170, cooling 0.30 deg C./hour, measured 1.43 mg/mL", "result": 29.6, "unit": "deg C."}, {"measurement": "Ppt T", "setting": "[3]; Exp MC2-102-172, cooling 0.15 deg C./hour, measured 1.53 mg/mL", "result": 33.3, "unit": "deg C."}, {"measurement": "Ppt T", "setting": "[3]; Exp MC2-102-174, cooling 0.40 deg C./hour, measured 1.51 mg/mL", "result": 30.9, "unit": "deg C."}, {"measurement": "Ppt T", "setting": "[3]; Exp MC2-102-178, cooling 0.22 deg C./hour, measured 1.42 mg/mL", "result": 33.7, "unit": "deg C."}, {"measurement": "Ppt T", "setting": "[3]; Exp MC2-102-181, cooling 0.10 deg C./hour, measured 1.46 mg/mL", "result": 33.5, "unit": "deg C."}, {"measurement": "Ppt T", "setting": "[3]; Exp MC2-102-182, cooling 0.22 deg C./hour, measured 1.77 mg/mL", "result": 35.5, "unit": "deg C."}, {"measurement": "Ppt T", "setting": "[3]; Exp MC2-102-185, cooling 0.40 deg C./hour, measured 1.30 mg/mL", "result": 17.4, "unit": "deg C."}, {"measurement": "Ppt T", "setting": "[3]; Exp MC2-102-187, cooling 0.30 deg C./hour, measured 1.10 mg/mL", "result": 10.2, "unit": "deg C."}, {"measurement": "Ppt T", "setting": "[3]; Exp MC2-102-192, cooling 0.20 deg C./hour, measured 1.21 mg/mL", "result": 22.9, "unit": "deg C."}, {"measurement": "Ppt T", "setting": "[3]; Exp MC2-102-193, cooling 0.10 deg C./hour, measured 1.26 mg/mL", "result": 24.1, "unit": "deg C."}, {"measurement": "Ppt T", "setting": "[3]; Exp MC2-102-197, cooling 0.40 deg C./hour, measured 1.06 mg/mL", "result": 2.6, "unit": "deg C."}, {"measurement": "Ppt T", "setting": "[3]; Exp MC2-1108-001, cooling 0.40 deg C./hour, measured 0.97 mg/mL", "result": 12.8, "unit": "deg C."}]}]}
